US6222035A, “[1,2,4] triazolo [1,5-C] pyrimidine derivatives” (Kyowa Hakko Kogyo Co., Ltd., priority 1997, dated 2001)
Structures can show the parent of a compound that is named as a salt.

Assays:
[1] = system: CGS 21680-induced catalepsy in mice; assay: Activity on CGS 21680-induced Catalepsy; format: in vivo, mouse (male ddY); settings: 10 mg/kg oral; for Total score (catalepsy): 10 animals, maximum 50 points, control 48; for Number of Animals showing remission: catalepsy score 4 points or less in 10 cases; for inhibition in vivo at 10 mg/kg: Mus musculus, CGS 21680-induced catalepsy, read-out: Remission ratio (%)
Protocol: Activity on CGS 21680-induced Catalepsy
Parkinson's disease is motor deficit based on the degeneration and cell death of the nigrostriatal dopaminergic neuron. […] [Journal of Neuroscience, 16: 605 (1996)]. Accordingly, it is considered that adenosine A2A receptor agonists positively regulate the output of the striopallidal GABAergic neurons and, as a result, catalepsy is induced by the administration of CGS 21680.
This test was carried out using 10 animals per group of male ddY mice of 5 week age (22 to 25 g in body weight, Japan SLC). CGS 21680 (manufactured by RBI) was dissolved in a physiological saline (manufactured by Otsuka Pharmaceutical), and 10 μg/20 μl of the solution was injected into mouse intracerebro-ventricle. Test compounds were used by suspending them in distilled water containing 0.3% of polyoxyethylene(20)sorbitan monooleate (hereinafter referred to as "Tween 80") (manufactured by Otsuka Pharmaceutical). […] One hour after the administration of the test compound, only forelimbs or only hindlimbs of each animal were laid on a vertically arranged stand made of acryl, having a size of 4.5 cm in height and 1.0 cm in width, to measure catalepsy symptoms. All of the compounds were administered orally in a dose of 10 mg/kg.
The effect was judged by total catalepsy scores of 10 animals in one group (the maximum is 50 points). When the total score was 40 points or less, the activity of drugs was judged positive. The number of animals showing remission of catalepsy was expressed by the number of cases in which the catalepsy score was 4 points or less in 10 cases. The catalepsy remission ratio was expressed as the percentage of the total score in the test compound-administered group to the total score in the control group.

[2] = biological target: T1, adenosine A2A receptor (Rattus norvegicus, UniProt P30543); assay: Adenosine receptor binding activity (adenosine A2A receptor binding test), 3H-CGS 21680 binding; settings: 2 h, read-out: A2A receptor inhibition ratio (%); for inhibition at 0.1 µM: 10^-7 M
T1 construct: from tissue; host or cells: rat corpus striatum, washed membrane suspension
T1 sequence (P30543 whole entry): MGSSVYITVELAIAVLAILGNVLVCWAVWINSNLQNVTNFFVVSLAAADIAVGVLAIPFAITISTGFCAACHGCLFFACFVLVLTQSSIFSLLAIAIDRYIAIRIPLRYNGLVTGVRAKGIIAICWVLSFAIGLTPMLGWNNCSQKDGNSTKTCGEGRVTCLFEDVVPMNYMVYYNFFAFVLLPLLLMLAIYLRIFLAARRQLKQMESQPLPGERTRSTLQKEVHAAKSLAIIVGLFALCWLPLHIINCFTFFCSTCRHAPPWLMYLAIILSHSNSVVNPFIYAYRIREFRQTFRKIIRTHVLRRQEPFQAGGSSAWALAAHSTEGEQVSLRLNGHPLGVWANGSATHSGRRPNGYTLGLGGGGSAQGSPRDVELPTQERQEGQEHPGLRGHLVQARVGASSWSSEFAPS
Protocol: Adenosine receptor binding activity (adenosine A2A receptor binding test) This test was carried out by slightly modifying the method of Bruns et al. [Molecular Pharmacology, 29: 331 (1986)].
Corpus striatum of a rat was suspended in an ice-cooled 50 mM tris(hydroxymethyl)aminomethane hydrochloride (hereinafter referred to as "Tris-HCl") buffer (pH 7.7) using Polytron Homogenizer (manufactured by Kinematica Co.). The suspension was centrifuged (50,000×g, 10 minutes), and the obtained precipitate was re-suspended in the same amount of 50 mM Tris-HCl buffer. The suspension was centrifuged under the same conditions, and the final precipitate was suspended in 50 mM Tris-HCl [containing 10 mM magnesium chloride and 0.02 unit/mg tissue of adenosine deaminase (manufactured by Sigma Co.)] to give a tissue concentration of 5 mg (wet weight)/ml.
To 1 ml of the tissue suspension thus prepared were added 50 μl of tritium-labeled CGS 21680 {^3 H-2-[p-(2-carboxyethyl)phenethylamino]-5'-N-ethylcarboxamido)adenosine: 40 Ci/mmol; manufactured by New England Nuclear Co.[The Journal of Pharmacology and Experimental Therapeutics, 251: 888 (1989)]} (final concentration:4.0 nM) and 50 μl of a test compound. The resulting mixture was allowed to stand for 120 minutes at 25° C., and then rapidly filtered by suction through a glass fiber filter (GF/C, manufactured by Whatman Co.) The filter was immediately washed three times with […] of an ice-cooled 50 mM Tris-HCl buffer, and transferred to a vial, a scintillator (EX-H , manufactured by Wako Pure Chemical Industries, Ltd.) was added thereto, and the radioactivity on the filter was determined with a liquid scintillation counter (manufactured by Packard Instrument Co.) […]
The inhibition ratio of the test compound against the A2A receptor binding (^3 H-CGS 21680 binding) was calculated by the following equation:
Inhibition ratio (%)={1-(Amount of the binding in the presence of the test compound-Amount of the nonspecific binding)/(Amount of the total binding-Amount of the nonspecific binding)}×100
(Note) Amount of the total binding means the amount of radioactivity of ^3 H-CGS 21680 bound in the absence of the test compound. Amount of the nonspecific binding means the amount of radioactivity of ^3 H-CGS 21680 bound in the presence of 100 μM cyclopentyladenosine (CPA, manufactured by Sigma Co.) Amount of the binding in the presence of the test compound means the amount of radioactivity of ^3 H-CGS 21680 bound in the presence of the test compound at various levels of concentrations.

For `CC(C)OCCCN1CCN(c2cc3nc(-c4ccco4)nn3c(N)n2)CC1` [Compound 101, 5-Amino-2-(2-furyl)-7-(4-(3-isopropoxypropyl)piperazinyl)[1,2,4]triazolo[1,5-c]pyrimidine], the “Total score (catalepsy)” value [1] was 8, the “Number of Animals showing remission” value [1] was 10 and the inhibition in vivo at 10 mg/kg [1] was 82%. It also gave an inhibition at 0.1 µM [2] of 46%.
For `Nc1nc(N2CCN(Cc3c(Cl)cccc3Cl)CC2)cc2nc(-c3ccco3)nn12` [Compound 80, 5-Amino-7-(4-(2,6-dichlorobenzyl)piperazinyl)-2-(2-furyl)[1,2,4]triazolo[1,5-c]pyrimidine hydrochloride], the “Total score (catalepsy)” value [1] was 3, the “Number of Animals showing remission” value [1] was 10 and the inhibition in vivo at 10 mg/kg [1] was 92%. The inhibition at 0.1 µM [2] was 93%.
For `Nc1nc(N2CCN(CCOCc3ccccc3)CC2)cc2nc(-c3ccco3)nn12` [Compound 97, 5-Amino-7-(4-(2-benzyloxyethyl)piperazinyl)-2-(2-furyl)[1,2,4]triazolo[1,5-c]pyrimidine hydrochloride], the “Total score (catalepsy)” value [1] was 4, the “Number of Animals showing remission” value [1] was 10 and the inhibition in vivo at 10 mg/kg [1] was 90%. It also gave an inhibition at 0.1 µM [2] of 79%.
For `Nc1nc(N2CCN(Cc3cnns3)CC2)cc2nc(-c3ccco3)nn12` [Compound 144, 5-Amino-2-(2-furyl)-7-(4-(1,2,3-thiadiazol-5-ylmethyl)piperazinyl)[1,2,4]triazolo[1,5-c]pyrimidine], the “Total score (catalepsy)” value [1] was 9, the “Number of Animals showing remission” value [1] was 9 and the inhibition in vivo at 10 mg/kg [1] was 80%. For the same compound, the inhibition at 0.1 µM [2] was 58%.
With `CCCN1CCN(c2cc3nc(-c4ccco4)nn3c(N)n2)CC1` [Compound 123, 5-Amino-2-(2-furyl)-7-(4-propylpiperazinyl)[1,2,4]triazolo[1,5-c]pyrimidine] the “Total score (catalepsy)” value [1] was 1, the “Number of Animals showing remission” value [1] was 10 and the inhibition in vivo at 10 mg/kg [1] was 96%. The inhibition at 0.1 µM [2] was 42%.
With `C[C@@H]1CN(c2cc3nc(-c4ccco4)nn3c(N)n2)C[C@H](C)N1Cc1ccccc1` [Compound 116, 5-Amino-7-(4-benzyl-cis-3,5-dimethylpiperazinyl)-2-(2-furyl)[1,2,4]triazolo[1,5-c]pyrimidine] the “Total score (catalepsy)” value [1] was 5, the “Number of Animals showing remission” value [1] was 10 and the inhibition in vivo at 10 mg/kg [1] was 90%. It also gave an inhibition at 0.1 µM [2] of 38%.
With `Cc1nc(CN2CCN(c3cc4nc(-c5ccco5)nn4c(N)n3)CC2)cs1` [Compound 142, 5-Amino-2-(2-furyl)-7-(4-(2-methylthiazol-4-ylmethyl)piperazinyl)[1,2,4]triazolo[1,5-c]pyrimidine] the “Total score (catalepsy)” value [1] was 6, the “Number of Animals showing remission” value [1] was 10 and the inhibition in vivo at 10 mg/kg [1] was 88%. It also gave an inhibition at 0.1 µM [2] of 66%.
For `CCCCN1CCN(c2cc3nc(-c4ccco4)nn3c(N)n2)CC1` [Compound 135, 5-Amino-7-(4-butylpiperazinyl)-2-(2-furyl)[1,2,4]triazolo[1,5-c]pyrimidine], the “Total score (catalepsy)” value [1] was 9, the “Number of Animals showing remission” value [1] was 9 and the inhibition in vivo at 10 mg/kg [1] was 80%. For the same compound, the inhibition at 0.1 µM [2] was 49%.
In the case of `C[C@@H]1CN(c2cc3nc(-c4ccco4)nn3c(N)n2)C[C@H](C)N1C` [Compound 115, 5-Amino-7-(cis-3,5-dimethyl-4-methylpiperazinyl)-2-(2-furyl)[1,2,4]triazolo[1,5-c]pyrimidine hydrochloride], the “Total score (catalepsy)” value [1] is reported as 5, the “Number of Animals showing remission” value [1] is reported as 10 and the inhibition in vivo at 10 mg/kg [1] is reported as 88%. For the same compound, the inhibition at 0.1 µM [2] was 22%.
For `Nc1nc(N2CCN(CCCF)CC2)cc2nc(-c3ccco3)nn12` [Compound 127, 5-Amino-7-(4-(3-fluoropropyl)piperazinyl)-2-(2-furyl)[1,2,4]triazolo[1,5-c]pyrimidine], the “Total score (catalepsy)” value [1] was 3, the “Number of Animals showing remission” value [1] was 10 and the inhibition in vivo at 10 mg/kg [1] was 96%. It also gave an inhibition at 0.1 µM [2] of 59%.
With `CCOCCCN1CCN(c2cc3nc(-c4ccco4)nn3c(N)n2)CC1` [Compound 100, 5-Amino-7-(4-(3-ethoxypropyl)piperazinyl)-2-(2-furyl)[1,2,4]triazolo[1,5-c]pyrimidine] the “Total score (catalepsy)” value [1] was 4, the “Number of Animals showing remission” value [1] was 10 and the inhibition in vivo at 10 mg/kg [1] was 90%. For the same compound, the inhibition at 0.1 µM [2] was 54%.
In the case of `Nc1nc(N2CCN(CCOCCO)CC2)cc2nc(-c3ccco3)nn12` [Compound 103, 5-Amino-2-(2-furyl)-7-(4-(2-(2-hydroxyethoxy)ethyl)piperazinyl)[1,2,4]triazolo[1,5-c]pyrimidine], the “Total score (catalepsy)” value [1] is reported as 2, the “Number of Animals showing remission” value [1] is reported as 10 and the inhibition in vivo at 10 mg/kg [1] is reported as 94%. The inhibition at 0.1 µM [2] was 53%.
With `COc1cc(CN2CCN(c3cc4nc(-c5ccco5)nn4c(N)n3)CC2)cc(OC)c1` [Compound 76, 5-Amino-7-(4-(3,5-dimethoxybenzyl)piperazinyl)-2-(2-furyl)[1,2,4]triazolo[1,5-c]pyrimidine] the “Total score (catalepsy)” value [1] was 11, the “Number of Animals showing remission” value [1] was 10 and the inhibition in vivo at 10 mg/kg [1] was 76%. For the same compound, the inhibition at 0.1 µM [2] was 73%.
For `COc1cc(CN2CCN(c3cc4nc(-c5ccco5)nn4c(N)n3)CC2)cc(OC)c1OC` [Compound 77, 5-Amino-2-(2-furyl)-7-(4-(3,4,5-trimethoxybenzyl)piperazinyl)[1,2,4]triazolo[1,5-c]pyrimidine], the “Total score (catalepsy)” value [1] was 21, the “Number of Animals showing remission” value [1] was 9 and the inhibition in vivo at 10 mg/kg [1] was 54%. The inhibition at 0.1 µM [2] was 77%.
For `Nc1nc(N2CCN(CCF)CC2)cc2nc(-c3ccco3)nn12` [Compound 126, 5-Amino-7-(4-(2-fluoroethyl)piperazinyl)-2-(2-furyl)[1,2,4]triazolo[1,5-c]pyrimidine], the “Total score (catalepsy)” value [1] was 2, the “Number of Animals showing remission” value [1] was 9 and the inhibition in vivo at 10 mg/kg [1] was 96%. The inhibition at 0.1 µM [2] was 60%.
For `CCNC(=O)c1cnc(N)n2nc(-c3ccco3)nc12` [Compound 169, 5-Amino-8-ethylcarbamoyl-2-(2-furyl)[1,2,4]triazolo[1,5-c]pyrimidine], the “Total score (catalepsy)” value [1] was 9, the “Number of Animals showing remission” value [1] was 10 and the inhibition in vivo at 10 mg/kg [1] was 82%. It also gave an inhibition at 0.1 µM [2] of 96%.
For `Nc1nc(N2CCN(CCCc3cccnc3)CC2)cc2nc(-c3ccco3)nn12` [Compound 87, 5-Amino-2-(2-furyl)-7-(4-(3-(3-pyridyl)propyl)piperazinyl)[1,2,4]triazolo[1,5-c]pyrimidine hydrochloride], the “Total score (catalepsy)” value [1] was 14, the “Number of Animals showing remission” value [1] was 9 and the inhibition in vivo at 10 mg/kg [1] was 68%. The inhibition at 0.1 µM [2] was 77%.
For `CC(O)CN1CCN(c2cc3nc(-c4ccco4)nn3c(N)n2)CC1` (racemic) [Compound 105, (±)-5-Amino-2-(2-furyl)-7-(4-(2-hydroxypropyl)piperazinyl)[1,2,4]triazolo[1,5-c]pyrimidine], the “Total score (catalepsy)” value [1] was 4, the “Number of Animals showing remission” value [1] was 10 and the inhibition in vivo at 10 mg/kg [1] was 92%. The inhibition at 0.1 µM [2] was 41%.
For `Nc1nc(Oc2ccc(Cl)cc2)cc2nc(-c3ccco3)nn12` [Compound 35, 5-Amino-7-(4-chlorophenoxy)-2-(2-furyl)[1,2,4]triazolo[1,5-c]pyrimidine], the “Total score (catalepsy)” value [1] was 15, the “Number of Animals showing remission” value [1] was 8 and the inhibition in vivo at 10 mg/kg [1] was 66%. The inhibition at 0.1 µM [2] was 82% and the inhibition at 0.01 µM ([2]; 10^-8 M) was 43%.
